target: T1, protein kinase D3 (PKD3) (Homo sapiens, UniProt O94806); assay: PKD3 TR-FRET (LANCE) kinase assay; assay type: biochemical; details: full length wild-type enzyme, 20 μM ATP, syntide-2 substrate; read-out: Inhibitory Activity PKD3
T1 construct: This assay is performed with full length wild-type enzyme that is purchased from Invitrogen; purchased Invitrogen
T1 sequence (O94806 1-890): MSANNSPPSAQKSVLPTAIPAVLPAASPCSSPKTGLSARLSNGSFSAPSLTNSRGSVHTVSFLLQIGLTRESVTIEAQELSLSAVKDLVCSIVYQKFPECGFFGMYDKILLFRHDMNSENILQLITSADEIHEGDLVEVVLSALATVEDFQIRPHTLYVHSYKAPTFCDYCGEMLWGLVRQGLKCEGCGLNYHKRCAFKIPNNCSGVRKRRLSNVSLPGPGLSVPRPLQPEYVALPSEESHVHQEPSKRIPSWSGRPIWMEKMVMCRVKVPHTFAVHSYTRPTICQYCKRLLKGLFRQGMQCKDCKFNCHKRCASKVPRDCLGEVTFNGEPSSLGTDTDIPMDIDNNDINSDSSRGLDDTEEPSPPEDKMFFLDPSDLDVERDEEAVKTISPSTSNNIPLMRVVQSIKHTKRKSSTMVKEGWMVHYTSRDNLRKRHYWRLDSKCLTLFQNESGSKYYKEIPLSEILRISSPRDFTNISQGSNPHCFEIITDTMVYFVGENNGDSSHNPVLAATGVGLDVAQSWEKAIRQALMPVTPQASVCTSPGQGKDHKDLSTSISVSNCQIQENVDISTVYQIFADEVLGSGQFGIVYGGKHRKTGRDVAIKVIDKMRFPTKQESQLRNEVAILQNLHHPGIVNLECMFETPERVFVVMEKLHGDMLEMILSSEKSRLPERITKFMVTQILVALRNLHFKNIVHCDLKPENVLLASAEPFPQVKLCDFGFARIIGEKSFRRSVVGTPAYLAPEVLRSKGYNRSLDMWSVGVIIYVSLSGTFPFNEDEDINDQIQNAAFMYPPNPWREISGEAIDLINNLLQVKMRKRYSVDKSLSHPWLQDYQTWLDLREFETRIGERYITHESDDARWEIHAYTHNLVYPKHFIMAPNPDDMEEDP
Excerpt: The assay to measure protein kinase D3 (PKD3) activity is a time-resolved fluorescence resonance transfer (TR-FRET) assay using PerkinElmer's LANCE™ technology. In this case, a biotinylated syntide-2 peptide is used as the substrate in this reaction. Phosphorylation of the syntide-2 substrate is detected by a specific antibody that recognizes the phosphorylated peptide. A second fluorophore, APC, is conjugated to streptavidin that binds the biotinylated syntide-2 peptide. […] Therefore, when the europium labeled secondary antibody binds on the phosphorylated peptide, it is brought into close contact with the APC and excites this fluorophore.
This assay is performed with full length wild-type enzyme that is purchased from Invitrogen. The reaction buffer consists of 35 mM Tris-HCl pH7.5, 5 mM MgCl2, 0.02% Tween-20, 20 μM ATP, 1 mM DTT and 0.2 μg/mL PKD3 enzyme. The enzyme reaction is initiated by the addition of 2 μM syntide-2 peptide substrate and the reaction carried out for 50 minutes at room temperature. The reaction is stopped by a stop/detection buffer consisting of 50 mM EDTA, 0.18 mg/mL rabbit polyclonal anti-phospho Syntide-2 antibody, 0.5 nM europium labeled anti-rabbit IgG and 10 nM streptavidin conjugated APC. After a one hour incubation with the stop/detection buffer, the reaction is read on an Envision 2100 Reader using a LANCE™ Eu/APC dual protocol. […] IC50 values are calculated using an Activity Base (IDBS) software program.

IC50 [nM]	Structure (SMILES)
85	CS(=O)(=O)c1cc(-c2ccnc(NC3CCCCC3)c2)nc(N2CCNCC2)c1 [Cyclohexyl-(4-methanesulfonyl-6-piperazin-1-yl-[2,4′]bipyridinyl-2′-yl)-amine]
252	Fc1ccc(Nc2cc(-c3ccnc(NC4CCCCC4)c3)nc(N3CCNCC3)c2)cc1 [N*2′*-Cyclohexyl-N*4*-(4-fluoro-phenyl)-6-piperazin-1-yl-[2,4′]bipyridinyl-4,2′-diamine]
38	Nc1cc(-c2ccnc(NC3CCCCC3)c2)nc(N2CCNCC2)c1 [N*2′*-Cyclohexyl-6-piperazin-1-yl-[2,4′]bipyridinyl-4,2′-diamine]
20	NC(=O)c1cc(-c2ccnc(NC3CCCCC3)c2)nc(N2CCN3CCC[C@@H]3C2)c1 [2′-Cyclohexylamino-6-(R)-hexahydro-pyrrolo[1,2-a]pyrazin-2-yl-[2,4′]bipyridinyl-4-carboxylic acid amide]
14	c1cc(-c2cc(-c3nnco3)cc(N3CCNCC3)n2)cc(NC2CCCCC2)n1 [Cyclohexyl-(4-[1,3,4]oxadiazol-2-yl-6-piperazin-1-yl-[2,4′]bipyridinyl-2′-yl)-amine]
2	NC(=O)c1cc(-c2ccnc(NCCc3ccc(O)cc3)c2)nc(N2CCNCC2)c1 [2′-[2-(4-Hydroxyphenyl)ethylamino]-6-piperazin-1-yl-[2,4′]bipyridinyl-4-carboxylic acid amide]
166	COC(=O)c1ccc(-c2ccnc(NC3CCCCC3)c2)nc1N1CCNCC1 [2′-Cyclohexylamino-6-piperazin-1-yl-[2,4′]bipyridinyl-5-carboxylic acid methyl ester]
5	O=[N+]([O-])c1cc(-c2ccnc(NC3CCCCC3)c2)nc(N2CCNCC2)c1 [Cyclohexyl-(4-nitro-6-piperazin-1-yl-[2,4′]bipyridinyl-2′-yl)-amine]
74	O=C1NCc2c1cc(-c1ccnc(NC3CCCCC3)c1)nc2N1CCn2cnnc2C1 [6-(2-Cyclohexylamino-pyridin-4yl)-4-(5,6-dihydro-8H-[1,2,4]triazolo[4,3-a]pyrazin-7-yl)-2,3-dihydro-pyrrolo[3,4-c]pyridin-1-one]
114	N#CCNC(=O)c1ccc(-c2ccnc(NC3CCCCC3)c2)nc1N1CCNCC1 [2′-Cyclohexylamino-6-piperazin-1-yl-[2,4′]bipyridinyl-5-carbonxylic acid cyanomethyl-amide]
31	NC(=O)c1cc(-c2ccnc(NCc3ccccc3Cl)c2)nc(N2CCNCC2)c1 [2′-(2-Chlorobenzylamino-6-piperazin-1-yl-[2,4′]bipyridinyl-4-carboxylic acid amide]

Structure (SMILES)	IC50 [nM]
FC(F)(F)c1cc(-c2ccnc(NC3CCCCC3)c2)nc(N2CCNCC2)c1 [Cyclohexyl-(6-piperazin-1-yl-4-trifluoromethyl-[2,4′]bipyridinyl-2′-yl)amine]	13
